Results on seven compounds are retold here after patent US11485735B2, “Selective CDK4/6 inhibitor and preparation thereof” (Wuxi Shuangliang Biotechnology Co., Ltd., priority 2019, dated 2022).

For one test, the target named is T1, CDK4/CyclinD3 (Homo sapiens, UniProt P11802).
T1 construct: purchased Wuxi Biortus Biosciences Co. Ltd
The test is described as follows: In-vitro kinase inhibitory activity, CDK4/CyclinD3 (Caliper EZ Reader II mobility shift). Type of test: biochemical. As to conditions: CDK4/CyclinD3 20 nM, ATP 2 mM, Peptide 1 μM, 27° C., 180 min; read-out: IC50 (half maximal inhibitory concentration, nM) CDK4. The method, then:
The final volume for assay was 16 μL, and the reaction temperature was 27° C. CDK4/CyclinD3 was produced by Wuxi Biortus Biosciences Co. Ltd. The concentration of the kinase was determined by the results of the optimization experiment. The kinase was diluted with an assay buffer (50 mM Tris HCl pH 8.0, 0.01% Tween 20, 50 μg/mL BSA, and 5 mM MgCl2) to obtain a corresponding kinase solution (2.4× concentration). The compound was dissolved in dimethyl sulfoxide (DMSO) to reach a concentration of 10 mM. […] 2 μL of the test compound solution was mixed with 5 μL of the kinase solution, and the mixture was incubated for 10 min. 5 μL of the mixed solution of the polypeptide substrate and ATP was then added. The mixture was incubated at 27° C. for 180 min, and then the reaction was terminated by adding 4 μL of EDTA with a concentration of 120 mM to each sample. […] Each assay was conducted in at least two replicates.
(§1) The final concentrations of the reagents in the assay were as follows. […] The reaction mixture was analyzed on a Caliper EZ Reader II by electrophoretic separation of the fluorescent substrate and the phosphorylated product. Data were calculated by using GraphPad Prism version 6.0 and IC50 values were obtained by adjusting the non-linear regression models of the dose response curves.

Another test concerns the target CDK9 (Homo sapiens, UniProt P50750). The test is described as follows: In-vitro kinase inhibitory activity, CDK9 (selectivity). The note with it: read-out: IC50 (half maximal inhibitory concentration, nM) CDK9. Type of test: biochemical.
For a further test, the target named is T2, CDK6/CyclinD3 (Homo sapiens, UniProt Q00534).
T2 construct: purchased Wuxi Biortus Biosciences Co. Ltd
T2 sequence (Q00534 whole entry, species assumed): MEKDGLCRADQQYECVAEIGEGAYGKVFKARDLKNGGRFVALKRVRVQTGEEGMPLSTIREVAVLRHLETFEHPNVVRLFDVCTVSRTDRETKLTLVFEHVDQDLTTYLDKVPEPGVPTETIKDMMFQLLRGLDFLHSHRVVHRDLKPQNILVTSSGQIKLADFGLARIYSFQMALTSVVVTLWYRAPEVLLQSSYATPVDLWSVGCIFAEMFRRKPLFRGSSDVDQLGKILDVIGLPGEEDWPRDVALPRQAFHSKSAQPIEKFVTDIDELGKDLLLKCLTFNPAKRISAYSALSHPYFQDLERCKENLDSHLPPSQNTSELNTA
T2 sequence (P30281 whole entry partner, species assumed): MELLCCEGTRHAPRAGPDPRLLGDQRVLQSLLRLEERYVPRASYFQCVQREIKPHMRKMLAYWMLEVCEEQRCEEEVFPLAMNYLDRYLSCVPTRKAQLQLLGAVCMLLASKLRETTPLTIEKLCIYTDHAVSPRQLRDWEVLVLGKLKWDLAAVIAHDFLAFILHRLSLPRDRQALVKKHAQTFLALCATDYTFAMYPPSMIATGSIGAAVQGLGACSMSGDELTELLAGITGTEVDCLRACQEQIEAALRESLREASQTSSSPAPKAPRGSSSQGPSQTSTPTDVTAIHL
The test is described as follows: In-vitro kinase inhibitory activity, CDK6/CyclinD3 (Caliper EZ Reader II mobility shift). Type of test: biochemical. As to conditions: CDK6/CyclinD3 20 nM, ATP 2 mM, Peptide 1 μM, 27° C., 120 min; read-out: IC50 (half maximal inhibitory concentration, nM) CDK6. Here is the method:
The final volume for assay was 16 μL, and the reaction temperature was 27° C. […] The compound was dissolved in dimethyl sulfoxide (DMSO) to reach a concentration of 10 mM. […] 2 μL of the test compound solution was mixed with 5 μL of the kinase solution, and the mixture was incubated for 10 min. 5 μL of the mixed solution of the polypeptide substrate and ATP was then added. The mixture was incubated at 27° C. for 120 min, and then the reaction was terminated by adding 4 μL of EDTA with a concentration of 120 mM to each sample. […] Each assay was conducted in at least two replicates.
as §1

The next test addresses CDK2 (Homo sapiens, UniProt P24941). The test is described as follows: In-vitro kinase inhibitory activity, CDK2 (selectivity). The class given is biochemical. As to conditions: read-out: IC50 (half maximal inhibitory concentration, nM) CDK2.
A further test deals with T3, CRBN (Homo sapiens, UniProt Q96SW2).
T3 construct: purchased Wuxi Biortus Biosciences Co. Ltd
T3 sequence (Q96SW2 whole entry, species assumed): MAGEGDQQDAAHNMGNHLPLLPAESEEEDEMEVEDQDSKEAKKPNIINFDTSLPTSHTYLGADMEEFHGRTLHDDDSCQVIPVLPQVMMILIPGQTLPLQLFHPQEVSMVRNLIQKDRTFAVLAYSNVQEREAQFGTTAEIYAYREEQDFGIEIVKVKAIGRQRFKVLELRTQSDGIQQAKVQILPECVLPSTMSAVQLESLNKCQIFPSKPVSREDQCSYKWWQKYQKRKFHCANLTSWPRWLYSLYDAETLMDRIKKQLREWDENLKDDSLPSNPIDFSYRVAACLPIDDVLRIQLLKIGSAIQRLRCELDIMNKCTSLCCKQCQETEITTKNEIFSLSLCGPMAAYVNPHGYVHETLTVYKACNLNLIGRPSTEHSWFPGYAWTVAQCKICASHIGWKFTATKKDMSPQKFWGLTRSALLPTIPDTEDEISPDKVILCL
The test is described as follows: In-vitro inhibition assay of CRBN activity (fluorescence polarization, Cy5-Thalidomide). The note with it: Cy5-Thalidomide 10 nM, CRBN 180 nM, 27° C., 60 min. Type of test: binding. Here is the method:
The final volume for assay was 20 μL, and the reaction temperature was 27° C. CRBN was produced by Wuxi Biortus Biosciences Co. Ltd. The concentration of the kinase was determined by the optimization experiment, and the kinase was diluted with an assay buffer (50 mM Tris, pH 7.5, 100 mM NaCl, and 0.01% Pluronic acid) to obtain a corresponding kinase solution (2× concentration). The compound was dissolved in dimethyl sulfoxide (DMSO) to reach a concentration of 10 mM. […] 5 μL of the test compound solution was mixed with 5 μL of the substrate solution, and 10 μL of the kinase solution was added to the mixture. The mixture was incubated at 27° C. for 60 min. Each assay was conducted in at least two replicates. […].
The final concentrations of the reagents in the assay were as follows. […] The data of fluorescence polarization assay were read on TECAN infinite M1000. Data were calculated by using GraphPad Prism version 6.0, and IC50 values were obtained by adjusting the non-linear regression models of the dose response curves.
In general terms: In fluorescence polarisation assays a small probe gives low polarisation when free and higher when bound to something large.

Test [1] concerns human breast cancer MCF-7 cells. The test is described as follows: Growth inhibition of tumor cells cultured in vitro, CellTiter-Glo, MCF-7. The class given is cell-based. As to conditions: MCF-7, 72 h, CellTiter-Glo. From the text: (§2) Test drugs: Compounds of the present disclosure. Tumor cell strains: human colon cancer COLO205 cells and human breast cancer MCF-7 cells.
(§3) The growth inhibitory effects on human tumor cells COLO205 and MCF-7 cultured in vitro were observed by using a CellTiter-Glo Luminescent Cell Viability Assay Kit (Promega, Cat. No. G7572). Human tumor cells COLO205 and MCF-7 were both purchased from the American Type Culture Collection.
(§4) CellTiter-Glo Luminescent Cell Viability Assay: The previous cell culture medium was discarded, and the tumor cells were rinsed twice with PBS. An appropriate amount of trypsin (VWR, Cat. No. 0458-25G) was added to digest the tumor cells until most of the cells turned round and were detached from the wall. The trypsin digestion was terminated by adding an RPMI-1640 medium (COLO205; Gibco, Cat. No. A10491-01) containing 10% fetal bovine serum (Hyclone, Cat. No. SV30160.03) and MEM medium (MCF-7; Gibco, Cat. No. 10370-021) containing 10% fetal bovine serum and 0.01 mg/mL insulin, and the cells were gently pipetted with a pipette to completely suspend the tumor cells. After cell counting, a tumor cell suspension was prepared using a complete culture medium and the final concentration was 6.7×10^4 cells/mL. 90 μL of the tumor cell suspension was seeded in each well of a 96-well culture plate (6000 cells/well). The plate was then placed in an incubator with 5% CO2 at 37° C. and incubated for 24 h. A test drug was added by using an Agilent Bravo Automated Liquid Handling Platform, and 10 μL of the sample was added in each well. The assay was conducted in triplicate for each group. A compound of the present disclosure was dissolved in DMSO (BioRoYee, Cat. No. AF0231), and then the resulting solution was diluted to 10 μM/L, 3.33 μM/L, 1.11 μM/L, 0.37 μM/L, 0.123 μM/L, 0.041 μM/L, 0.0137 μM/L, 0.0046 μM/L, and 0.0015 μM/L with the culture medium. The concentration of DMSO was lower than 0.1%, and a culture medium containing 0.1% DMSO was added to the well which was set as a vehicle control group. The 96-well plate was placed in an incubator with 5% CO2 at 37° C. and incubated for 72 h. The 96-well plate to be tested was equilibrated at room temperature for 30 min, and 100 μL of Cell Titer-Glo reagent was added to each well. The contents of each well were mixed in an orbital shaker for 2 min to induce cell lysis, and the plate was incubated at room temperature for 10 min to achieve a constant value of fluorescent intensity. Finally, the chemiluminescence intensity was detected by TECAN M1000. Data were processed with Graphpad Prism 6.0 software. The growth curve of the cells was plotted. The cell growth inhibition rate of a drug was calculated, and the half maximal inhibitory concentration (IC50) of the drug was determined.
For orientation: ATP-based viability assays read luminescence as a measure of living cells.

Test [2] has as its system human colon cancer COLO205 cells. The test is described as follows: Growth inhibition of tumor cells cultured in vitro, CellTiter-Glo, COLO205. The class given is cell-based. As to conditions: Homo sapiens, COLO 205, 72 h, COLO205, 72 h, CellTiter-Glo.
Excerpt: as §2, §3, §4

Counter-ions that a name gives are not always drawn.

T1 sequence (P11802 whole entry, species assumed): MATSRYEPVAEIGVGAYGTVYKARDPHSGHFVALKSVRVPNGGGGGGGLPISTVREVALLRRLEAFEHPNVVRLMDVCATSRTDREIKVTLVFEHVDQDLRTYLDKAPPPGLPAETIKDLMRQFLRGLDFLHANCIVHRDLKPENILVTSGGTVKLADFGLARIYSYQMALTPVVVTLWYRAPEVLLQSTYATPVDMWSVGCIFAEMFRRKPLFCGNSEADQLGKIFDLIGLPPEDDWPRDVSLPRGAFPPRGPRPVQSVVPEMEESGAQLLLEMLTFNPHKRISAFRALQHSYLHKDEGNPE
T1 sequence (P30281 whole entry partner, species assumed): as the sequence (P30281 whole entry partner, species assumed) above
Chain of CDK9 (P50750 whole entry, species assumed): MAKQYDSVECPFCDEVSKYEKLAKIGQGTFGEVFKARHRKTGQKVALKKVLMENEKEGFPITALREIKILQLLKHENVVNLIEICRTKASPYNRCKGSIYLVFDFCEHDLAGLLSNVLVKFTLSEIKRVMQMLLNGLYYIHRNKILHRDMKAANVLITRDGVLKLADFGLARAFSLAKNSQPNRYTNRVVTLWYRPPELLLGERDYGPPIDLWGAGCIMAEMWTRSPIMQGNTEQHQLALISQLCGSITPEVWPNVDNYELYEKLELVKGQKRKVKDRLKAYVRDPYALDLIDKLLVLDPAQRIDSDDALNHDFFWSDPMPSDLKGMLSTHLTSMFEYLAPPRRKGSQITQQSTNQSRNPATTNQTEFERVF
Chain of CDK9 (O60563 whole entry partner, species assumed): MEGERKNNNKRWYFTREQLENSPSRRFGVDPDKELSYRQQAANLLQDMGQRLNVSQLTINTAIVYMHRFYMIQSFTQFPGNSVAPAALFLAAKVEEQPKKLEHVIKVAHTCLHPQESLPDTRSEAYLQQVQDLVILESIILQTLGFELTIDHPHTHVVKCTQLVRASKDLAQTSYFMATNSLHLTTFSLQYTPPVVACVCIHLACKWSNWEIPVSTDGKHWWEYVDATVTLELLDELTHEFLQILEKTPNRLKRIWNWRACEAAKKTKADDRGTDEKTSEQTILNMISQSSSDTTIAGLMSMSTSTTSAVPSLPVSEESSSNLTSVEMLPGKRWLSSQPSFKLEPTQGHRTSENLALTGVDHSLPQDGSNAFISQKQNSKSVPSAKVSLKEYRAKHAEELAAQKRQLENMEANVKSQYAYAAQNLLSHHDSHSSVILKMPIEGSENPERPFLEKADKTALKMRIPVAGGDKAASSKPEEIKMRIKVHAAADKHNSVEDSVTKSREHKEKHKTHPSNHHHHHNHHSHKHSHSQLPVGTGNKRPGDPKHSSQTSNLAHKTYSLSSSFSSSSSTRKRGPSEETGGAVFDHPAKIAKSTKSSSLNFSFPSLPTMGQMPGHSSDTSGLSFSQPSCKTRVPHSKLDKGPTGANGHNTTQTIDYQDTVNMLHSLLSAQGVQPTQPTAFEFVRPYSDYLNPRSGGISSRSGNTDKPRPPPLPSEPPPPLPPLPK

With `CC(=O)c1c(C)c2cnc(Nc3ccc(N4CCN(CCN5CCC(CN6CCN(c7ccc8c(c7)CN(C7CCC(=O)NC7=O)C8=O)CC6)CC5)CC4)cn3)nc2n(C2CCCC2)c1=O` (single isomer, unassigned) [Compound 3, 3-(5-(4-((1-(2-(4-(6-((6-acetyl-8-cyclopentyl-5-methyl-7-oxo-7,8-dihydropyrido[2,3-d]pyrimidin-2-yl)amino)pyridin-3-yl)piperazin-1-yl)ethyl)piperidin-4-yl)methyl)piperazin-1-yl)-1-oxoisoindolin-2-yl)piperidine-2,6-dione], the IC50 at CDK4/CyclinD3 stood at 16.1 nM; on CDK9, 2850 nM; at CDK6/CyclinD3, 14.5 nM; at CDK2, 9660 nM; at CRBN, 1200 nM.
The corresponding values for `Cc1nc2c(F)cc(-c3nc(Nc4ccc(CN5CCN(CC(=O)N6CCC(C(=O)N7CCN(c8ccc9c(c8)CN([C@H]8CCC(=O)NC8=O)C9=O)CC7)CC6)CC5)cn4)ncc3F)cc2n1C(C)C` [Compound 6, (S)-3-(5-(4-(1-(2-(4-((6-((5-fluoro-4-(4-fluoro-1-isopropyl-2-methyl-1H-benzo[d]imidazol-6-yl)pyrimidin-2-yl)amino)pyridin-3-yl)methyl)piperazin-1-yl)acetyl)piperidin-4-carbonyl)piperazin-1-yl)-1-oxoisoindolin-2-yl)piperidine-2,6-dione] are 24.2 nM, 946 nM, 42.4 nM, 1140 nM and 2510 nM.
With `CC(=O)c1c(C)c2cnc(Nc3ccc(N4CCN(CCN5CCC(OC6CCN(c7ccc8c(c7)CN(C7CCC(=O)NC7=O)C8=O)CC6)CC5)CC4)cn3)nc2n(C2CCCC2)c1=O` (centres unmarked) [Compound 9, 3-(5-(4-((1-(2-(4-(6-((6-acetyl-8-cyclopentyl-5-methyl-7-oxo-7,8-dihydropyrido[2,3-d]pyrimidin-2-yl)amino)pyridin-3-yl)piperazin-1-yl)ethyl)piperidin-4-yl)oxy)piperidin-1-yl)-1-oxoisoindolin-2-yl)piperidine-2,6-dione dihydrochloride], the IC50 was 19.2 nM on CDK4/CyclinD3; 3510 nM on CDK9; 14.2 nM on CDK6/CyclinD3; more than 10000 nM in test [1] (Homo sapiens, MCF7, 72 h); more than 10000 nM on CDK2; 247 nM in test [2].
Regarding `CC(=O)c1c(C)c2cnc(Nc3ccc(N4CCN(CCN5CCC(CC6CCN(c7ccc8c(c7)CN(C7CCC(=O)NC7=O)C8=O)CC6)CC5)CC4)cn3)nc2n(C2CCCC2)c1=O` (centres unmarked) [Compound 11, 3-(5-(4-((1-(2-(4-(6-((6-acetyl-8-cyclopentyl-5-methyl-7-oxo-7,8-dihydropyrido[2,3-d]pyrimidin-2-yl)amino)pyridin-3-yl)piperazin-1-yl)ethyl)piperidin-4-yl)methyl)piperidin-1-yl)-1-oxoisoindolin-2-yl)piperidine-2,6-dione dihydrochloride], the IC50 at CDK4/CyclinD3 was 24.6 nM; at CDK9, 4440 nM; on CDK6/CyclinD3, 21.1 nM; in test [1] (Homo sapiens, MCF7, 72 h), more than 10000 nM; on CDK2, 8200 nM; in test [2] it was 127 nM.
On to `Cc1nc2c(F)cc(-c3nc(Nc4ccc(CN5CCN(CCN6CCN(c7ccc8c(c7)CN(C7CCC(=O)NC7=O)C8=O)CC6)CC5)cn4)ncc3F)cc2n1C(C)C` (centres unmarked) [Compound 12, 3-(5-(4-(2-(4-((6-((5-fluoro-4-(4-fluoro-1-isopropyl-2-methyl-1H-benzo[d]imidazol-6-yl)pyrimidin-2-yl)amino)pyridin-3-yl)methyl)piperazin-1-yl)ethyl)piperazin-1-yl)-1-oxoisoindolin-2-yl) piperidine-2,6-dione trihydrochloride], for which the IC50 turned out to be 13 nM on CDK4/CyclinD3, 688 nM at CDK9, 23.2 nM at CDK6/CyclinD3 and 1030 nM on CDK2.
Turning to `CC(=O)c1c(C)c2cnc(Nc3ccc(N4CCN(CCN5CCN(c6ccc7c(c6Cl)CN(C6CCC(=O)NC6=O)C7=O)CC5)CC4)cn3)nc2n(C2CCCC2)c1=O` (centres unmarked) [Compound 20, 3-(5-(4-(2-(4-(6-((6-acetyl-8-cyclopentyl-5-methyl-7-oxo-7,8-dihydropyrido[2,3-d]pyrimidin-2-yl)amino)pyridin-3-yl)piperazin-1-yl)ethyl)piperazin-1-yl)-4-chloro-1-oxoisoindolin-2-yl)piperidine-2,6-dione], the IC50 at CDK4/CyclinD3 is 44.6 nM; on CDK9, 3760 nM; on CDK6/CyclinD3 it was 19.6 nM; in test [1] (Homo sapiens, MCF7, 72 h), more than 10000 nM; on CDK2, more than 10000 nM; in test [2], 78.3 nM.
Take `CC(=O)c1c(C)c2cnc(Nc3ccc(N4CCN(CCN5CCN(c6c(F)cc7c(c6F)CN(C6CCC(=O)NC6=O)C7=O)CC5)CC4)cn3)nc2n(C2CCCC2)c1=O` (centres unmarked) [Compound 22, 3-(5-(4-(2-(4-(6-((6-acetyl-8-cyclopentyl-5-methyl-7-oxo-7,8-dihydropyrido[2,3-d]pyrimidin-2-yl)amino)pyridin-3-yl)piperazin-1-yl)ethyl)piperazin-1-yl)-4,6-difluoro-1-oxoisoindolin-2-yl) piperidine-2,6-dione]: the IC50 is 27.4 nM on CDK4/CyclinD3; 6220 nM at CDK9; 18.2 nM at CDK6/CyclinD3; more than 10000 nM in test [1]; more than 10000 nM on CDK2; 87.1 nM in test [2].
